Measured values: ChEMBL document CHEMBL4483862, “Open-source discovery of chemical leads for next-generation chemoprotective antimalarials” (2018)

Tested on: Plasmodium berghei
Assay: Luciferase/luciferin-expressing antifolate-resistant parasites were used to infect a culture of HepG2 cells that were pre-incubated with compounds. Infected hepatocytes emit light due to the luciferase reaction. Assay results are presented as the percent inhibition of light emission compared to control. […]
Format: functional
Conditions: sporozoite; for IC90: read-out: LUCIFERASE INFECTION ASSAY - IC90
[1] = read-out: LUCIFERASE INFECTION ASSAY - IC50

Structure (SMILES)	IC90 [µM]	IC50 [1] [µM]	also measured
Fc1ccc(-c2cnc3cnc(-c4cccs4)cn23)cc1Cl	> 10	–	IC50 (HEPG2TOX_HILL_SLOPE 0.129, HEPG2TOX_R_SQUARED 0.552, PBLUC_HILL_SLOPE 2.11, PBLUC_R_SQUARED 0.543, read-out: LUCIFERASE INFECTION ASSAY - IC50): 4.6 µM
CC(NCC(O)COC1CCC(C(C)(C)C)CC1)c1ccccc1 (stereo not given)	> 8.92	–	IC50 (PBLUC_HILL_SLOPE 10.1, PBLUC_R_SQUARED 0.42, read-out: LUCIFERASE INFECTION ASSAY - IC50): 7.39 µM
Cc1ccc2nc(NC(=O)c3ccc(F)cc3F)c(C(=O)NC3CCCC3)n2c1	2.97	–	IC50 (HEPG2TOX_HILL_SLOPE 1.63, HEPG2TOX_R_SQUARED 0.945, PBLUC_HILL_SLOPE 15.6, PBLUC_R_SQUARED 0.398, read-out: LUCIFERASE INFECTION ASSAY - IC50): 2.58 µM
CC1CCN(C(=O)CSC(F)(F)F)CC1	> 10	> 10	–
CCNC(=O)NC(=O)C(C)OC(=O)c1c(C)c(CC)nc2ccccc12 (stereo not given)	> 10	–	IC50 (HEPG2TOX_HILL_SLOPE 14.2, HEPG2TOX_R_SQUARED 0.666, PBLUC_HILL_SLOPE 0.849, PBLUC_R_SQUARED 0.474, read-out: LUCIFERASE INFECTION ASSAY - IC50): 4.39 µM
CC(C)N1CCN(c2ccc(-c3cn4c(-c5cccc(O)c5)cnc4cn3)cc2)CC1	> 7.98	–	IC50 (PBLUC_HILL_SLOPE 3.65, PBLUC_R_SQUARED 0.123, read-out: LUCIFERASE INFECTION ASSAY - IC50): > 7.98 µM
CC(C)(C)C(=O)Nc1ccccc1Sc1ccc([N+](=O)[O-])c(Sc2ccccc2NC(=O)C(C)(C)C)n1	> 6.13	> 6.13	–
COc1cc(NC(=O)CN2CC=C(c3c[nH]c4ccccc34)CC2)cc(OC)c1OC	> 10	> 10	–
CCCCc1ccc2nc(NC(=O)c3cnc(C)cn3)sc2c1	> 10	–	IC50 (HEPG2TOX_HILL_SLOPE 2.45, HEPG2TOX_R_SQUARED 0.834, PBLUC_HILL_SLOPE 1.44, PBLUC_R_SQUARED 0.354, read-out: LUCIFERASE INFECTION ASSAY - IC50): > 10 µM
CC(=O)c1ccc(-c2ccc(C(=O)N3CCCc4ccccc43)o2)cc1	0.942	–	IC50 (PBLUC_HILL_SLOPE 1.77, PBLUC_R_SQUARED 0.773, read-out: LUCIFERASE INFECTION ASSAY - IC50): 0.272 µM
CC(=O)c1ccc(OCC(O)CN2CCC(c3c[nH]c4ccccc34)CC2)cc1 (stereo not given)	> 10	5.84	–
Cn1c(S)nnc1-c1ccc(C(C)(C)C)cc1	> 13.3	> 13.3	–
COc1ncccc1-c1cc2c(cn1)nc(NCc1cccc(C)c1)n2C	> 10	> 10	–
Cc1nc2ccccc2nc1SC(C)C(=O)c1c[nH]c2ccccc12 (stereo not given)	1.98	–	IC50 (HEPG2TOX_HILL_SLOPE 0.739, HEPG2TOX_R_SQUARED 0.941, PBLUC_HILL_SLOPE 2.85, PBLUC_R_SQUARED 0.882, read-out: LUCIFERASE INFECTION ASSAY - IC50): 0.916 µM
O=C(CSc1nnc(N2CCCC2)n1-c1ccccc1Cl)N1CCC(c2ccccc2)=N1	> 10	> 10	–
COc1ccc(S(=O)(=O)N(Cc2cccs2)c2ccc3c(c2)OCCO3)cc1NC(C)=O	> 10	–	IC50 (HEPG2TOX_HILL_SLOPE 1.25, HEPG2TOX_R_SQUARED 0.989, PBLUC_HILL_SLOPE 1.59, PBLUC_R_SQUARED 0.297, read-out: LUCIFERASE INFECTION ASSAY - IC50): 4.15 µM
CC(C(=O)NC(C)(C)C)N1CCN(CC(=O)Nc2ccc(F)cc2)CC1 (stereo not given)	> 10	> 10	–
CC(C)Oc1ccccc1Nc1nc(=O)cn[nH]1	> 13.4	> 13.4	–
CCOC(=O)c1c[nH]c2ccc(OC(F)(F)F)cc2c1=O	> 11	> 11	–
COc1cccc2c1N(S(=O)(=O)c1ccccc1C(F)(F)F)CCC2	> 2	> 2	–
O=C1C(=O)N(Cc2ccccc2Cl)c2ccc(F)cc21	> 11.4	> 11.4	–
COc1ccc(-c2cnc3cnc(-c4ccccc4)cn23)cn1	> 10.9	–	IC50 (PBLUC_HILL_SLOPE 7.01, PBLUC_R_SQUARED 0.635, read-out: LUCIFERASE INFECTION ASSAY - IC50): 9.42 µM
COc1cc(C(=O)N(C)Cc2ccccc2N2CCOCC2)cc(OC)c1OC	> 10	> 10	–

Structure (SMILES)	IC90 [µM]	IC50 [1] [µM]	also measured
Cc1ccc(NC(=O)C(Sc2nnc3n(-c4ccccc4)c(=O)c4ccccc4n23)c2ccccc2)c([N+](=O)[O-])c1 (stereo not given)	> 10	–	IC50 (PBLUC_HILL_SLOPE 11.5, 36.4, PBLUC_R_SQUARED 0.176, 0.319, read-out: LUCIFERASE INFECTION ASSAY - IC50): 9.56 µM
COCCNC(=O)c1ccc(C2(CNc3ccc(OC)c(OC)c3)CC2)cc1	1.89	–	IC50 (FFLUC_HILL_SLOPE 16.1, FFLUC_R_SQUARED 0.266, PBLUC_HILL_SLOPE 1.26, PBLUC_R_SQUARED 0.621, read-out: LUCIFERASE INFECTION ASSAY - IC50): 0.332 µM
COc1ccc(CCN=C(S)NC2CCN(Cc3ccccc3)CC2)cc1	> 10	–	IC50 (HEPG2TOX_HILL_SLOPE 2.55, HEPG2TOX_R_SQUARED 0.6, read-out: LUCIFERASE INFECTION ASSAY - IC50): > 10 µM
Cc1ccc2[nH]c(-c3cccs3)c(CCC(=O)N(C)C3CCS(=O)(=O)C3)c2c1 (stereo not given)	3.85	–	IC50 (PBLUC_HILL_SLOPE 12.5, PBLUC_R_SQUARED 0.681, read-out: LUCIFERASE INFECTION ASSAY - IC50): 3.23 µM
C=CCN(c1ccccc1)S(=O)(=O)c1cc(C(=O)NCc2ccc3c(c2)OCO3)ccc1Cl	> 10	> 10	–
COc1ccc(-c2nn(-c3ccccc3)cc2/C=C/C(=O)Nc2nc3c(C)cccc3s2)cc1OC	> 10	6.8	–
CCOc1cc(N2CCOCC2)c(OCC)cc1NC(=O)c1n[nH]c(=O)c2ccccc12	> 10	> 10	–
CCCc1c(NC(=O)Nc2cc(C(F)(F)F)cc(C(F)(F)F)c2)cnn1-c1ccccc1	3.79	–	IC50 (FFLUC_HILL_SLOPE 11.3, FFLUC_R_SQUARED 0.657, HEPG2TOX_HILL_SLOPE 5.77, HEPG2TOX_R_SQUARED 0.944, PBLUC_HILL_SLOPE 9.21, PBLUC_R_SQUARED 0.384, read-out: LUCIFERASE INFECTION ASSAY - IC50): 2.99 µM
Cc1ccc(C(C)CCN2CCc3c(c(C(=O)NCc4nccs4)nn3CC3CC3)C2)o1 (stereo not given)	> 7.28	> 7.28	–
NC(=O)c1ccsc1NC(=O)CSc1ncc(-c2ccccc2)n1-c1ccccc1	3.1	–	IC50 (HEPG2TOX_HILL_SLOPE 1.27, HEPG2TOX_R_SQUARED 0.954, PBLUC_HILL_SLOPE 1.14, PBLUC_R_SQUARED 0.72, read-out: LUCIFERASE INFECTION ASSAY - IC50): 0.447 µM
Cc1ccnc(NC(c2ccccn2)c2ccc3ccc(C)nc3c2O)c1 (stereo not given)	> 9.26	–	IC50 (HEPG2TOX_HILL_SLOPE 1.81, HEPG2TOX_R_SQUARED 0.956, PBLUC_HILL_SLOPE 14.5, PBLUC_R_SQUARED 0.453, read-out: LUCIFERASE INFECTION ASSAY - IC50): 8.04 µM
Cc1cccc(Nc2ccccc2C(=O)Oc2ccc(Cl)cc2Cc2ccccc2)c1C	> 10	–	IC50 (HEPG2TOX_HILL_SLOPE 0.105, HEPG2TOX_R_SQUARED 0.052, read-out: LUCIFERASE INFECTION ASSAY - IC50): > 10 µM
Cc1cc(C(=O)OCC(=O)NC(=O)NC(C)(C)C)c(C)n1-c1ccccc1	> 10	–	IC50 (FFLUC_HILL_SLOPE 0.365, FFLUC_R_SQUARED 0.0382, read-out: LUCIFERASE INFECTION ASSAY - IC50): > 10 µM
CCC(C(=O)Nc1nc2ccccn2c1C(=O)NC1CCCCC1)c1ccccc1 (stereo not given)	> 8.16	–	IC50 (PBLUC_HILL_SLOPE 15.5, PBLUC_R_SQUARED 0.112, read-out: LUCIFERASE INFECTION ASSAY - IC50): 7.66 µM
O=C(CN1CCN(C(=O)c2ccc(=O)n(Cc3ccccc3)n2)CC1)NC1CC1	> 10	> 10	–
CCN(CC)CCn1c(NC(=O)c2cccc3c[nH]nc23)nc2ccccc21	> 10	–	IC50 (HEPG2TOX_HILL_SLOPE 0.322, HEPG2TOX_R_SQUARED 0.707, PBLUC_HILL_SLOPE 3.59, PBLUC_R_SQUARED 0.259, read-out: LUCIFERASE INFECTION ASSAY - IC50): 6.09 µM
Cc1cccc(C(=O)Nc2cc(S(=O)(=O)N3CCOCC3)ccc2N2CCCCC2)n1	> 10	–	IC50 (HEPG2TOX_HILL_SLOPE 0.0521, HEPG2TOX_R_SQUARED 0.112, read-out: LUCIFERASE INFECTION ASSAY - IC50): > 10 µM
CC(=O)c1sc(SCCS(=O)(=O)c2ccc(C)cc2)c2c1CC(C)(C)CC2=O	> 7.56	> 7.56	–
Oc1cccc2c(NC(S)=Nc3ccc(SC(F)F)cc3)cccc12	7.7	–	IC50 (FFLUC_HILL_SLOPE 69.3, FFLUC_R_SQUARED 0.272, PBLUC_HILL_SLOPE 39, PBLUC_R_SQUARED 0.0559, read-out: LUCIFERASE INFECTION ASSAY - IC50): 7.27 µM
Fc1ccccc1-c1cnn2c(NCCc3ccccn3)ccnc12	0.681	–	IC50 (FFLUC_HILL_SLOPE 1.74, FFLUC_R_SQUARED 0.803, PBLUC_HILL_SLOPE 0.998, PBLUC_R_SQUARED 0.825, read-out: LUCIFERASE INFECTION ASSAY - IC50): 0.0754 µM
Cc1nnsc1-c1onc(C)c1C(=O)NC(=O)Nc1cc(Cl)cc(Cl)c1	3.02	–	IC50 (HEPG2TOX_HILL_SLOPE 1.43, HEPG2TOX_R_SQUARED 0.987, PBLUC_HILL_SLOPE 8.7, PBLUC_R_SQUARED 0.518, read-out: LUCIFERASE INFECTION ASSAY - IC50): 2.34 µM
CN(C)c1cccc(-c2cnc3sc(NCc4ccc(F)cc4)nn23)c1	> 8.98	–	IC50 (FFLUC_HILL_SLOPE 4.01, FFLUC_R_SQUARED 0.615, PBLUC_HILL_SLOPE 7.46, PBLUC_R_SQUARED 0.677, read-out: LUCIFERASE INFECTION ASSAY - IC50): 7.83 µM
